Laboratory results from US8309734B2 (Hoffmann-La Roche Inc., priority 2008, dated 2012).

These compounds were tested against T1, human GPBAR1 receptor (Homo sapiens, UniProt Q8TDU6) (assay: functional cAMP assay in CHO-dhfr(minus) cells expressing human GPBAR1 receptors). Details: cAMP increase (TR-FRET) in CHO-dhfr(minus) cells expressing human GPBAR1; compounds incubated 30 min at 30° C.
T1 construct: expressed in transfected cells
T1 sequence (Q8TDU6 1-330): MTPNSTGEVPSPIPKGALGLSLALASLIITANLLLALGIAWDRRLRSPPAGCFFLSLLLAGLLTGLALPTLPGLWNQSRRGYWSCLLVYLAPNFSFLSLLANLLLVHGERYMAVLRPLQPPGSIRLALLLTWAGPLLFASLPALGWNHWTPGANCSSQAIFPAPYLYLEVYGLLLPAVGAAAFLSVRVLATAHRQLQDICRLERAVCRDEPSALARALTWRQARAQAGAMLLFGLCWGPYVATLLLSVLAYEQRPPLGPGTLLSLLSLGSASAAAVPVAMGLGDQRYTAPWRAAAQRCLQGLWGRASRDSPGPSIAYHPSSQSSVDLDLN
Type: cell-based

EC50	SMILES
0.843 µM	O=C(O)C/C=C/c1cc(Cl)c(Oc2ncccc2C(=O)N2CCN(C3CC3)c3ccccc32)cc1Cl [Example 175, 4-{2,5-Dichloro-4-[3-(4-cyclopropyl-3,4-dihydro-2H-quinoxaline-1-carbonyl)-pyridin-2-yloxyl]-phenyl}-but-3-enoic acid]
0.014 µM	O=C(c1cccnc1Oc1cc(Cl)ccc1Cl)N1CCN(C2COC2)c2ccccc21 [Example 127, [2-(2,5-Dichloro-phenoxy)-pyridin-3-yl]-(4-oxetan-3-yl-3,4-dihydro-2H-quinoxalin-1-yl)-methanone]
0.155 µM	CN(C(=O)c1cccnc1Oc1cc(Cl)ccc1Cl)c1c(F)cccc1F [Example 64, 2-(2,5-Dichloro-phenoxy)-N-(2,6-difluoro-phenyl)-N-methyl-nicotinamide]
0.837 µM	Cc1cc(F)c2c(c1)CCCN2C(=O)c1cccnc1Oc1cc(Cl)ccc1Cl [Example 68, [2-(2,5-Dichloro-phenoxy)-pyridin-3-yl]-(8-fluoro-6-methyl-3,4-dihydro-2H-quinolin-1-yl)-methanone]
0.071 µM	O=C(O)C1CCCN1C(=O)CCc1cc(Cl)c(Oc2ncccc2C(=O)N2CCN(C3CC3)c3ccccc32)cc1Cl (stereo not shown) [Example 180, 1-(3-{2,5-Dichloro-4-[3-(4-cyclopropyl-3,4-dihydro-2H-quinoxaline-1-carbonyl)-pyridin-2-yloxy]-phenyl}-propionyl)-pyrrolidine-2-carboxylic acid]
0.385 µM	Cc1cccc(N(C)C(=O)c2cccnc2Oc2cc(Cl)ccc2Cl)c1C [Example 57, 2-(2,5-Dichloro-phenoxy)-N-(2,3-dimethyl-phenyl)-N-methyl-nicotinamide]
0.565 µM	O=C(c1cc(F)cnc1Oc1cc(Cl)ccc1Cl)N1CCN(CCC(F)(F)F)c2ccccc21 [Example 153, [2-(2,5-Dichloro-phenoxy)-5-fluoro-pyridin-3-yl]-[4-(3,3,3-trifluoro-propyl)-3,4-dihydro-2H-quinoxalin-1-yl]-methanone]
0.163 µM	O=C(c1cccnc1Oc1cc(Cl)ccc1Cl)N1CCOc2ccc(F)cc21 [Example 72, [2-(2,5-Dichloro-phenoxy)-pyridin-3-yl]-(6-fluoro-2,3-dihydro-benzo[1,4]oxazin-4-yl)-methanone]
0.575 µM	N#Cc1cccc(Oc2ncccc2C(=O)N2CCCc3ccccc32)c1 [Example 7, 3-[3-(3,4-Dihydro-2H-quinoline-1-carbonyl)-pyridin-2-yloxy]-benzonitrile]
0.059 µM	Cc1cccc(Cl)c1N(C)C(=O)c1cccnc1Oc1cc(Cl)ccc1Cl [Example 51, N-(2-Chloro-6-methyl-phenyl)-2-(2,5-dichloro-phenoxy)-N-methyl-nicotinamide]
0.905 µM	CN(C(=O)c1cccnc1Oc1cc(Cl)ccc1Cl)c1ncccc1Cl [Example 46, N-(3-Chloro-pyridin-2-yl)-2-(2,5-dichloro-phenoxy)-N-methyl-nicotinamide]
0.155 µM	O=C(c1cc(F)cnc1Oc1cc(Cl)ccc1Cl)N1Cc2cccn2-c2ccccc21 [Example 149]
0.102 µM	COc1cc(C(=O)O)ccc1CCc1cc(Cl)c(Oc2ncccc2C(=O)N2CCN(C3CC3)c3ccccc32)cc1Cl [Example 171, 4-(2-{2,5-Dichloro-4-[3-(4-cyclopropyl-3,4-dihydro-2H-quinoxaline-1-carbonyl)-pyridin-2-yloxy]-phenyl}-ethyl)-3-methoxy-benzoic acid]
1.65 µM	Cc1cc(F)c2c(c1)CCCN2C(=O)c1ccccc1Oc1cc(Cl)ccc1Cl [Example 120, [2-(2,5-Dichloro-phenoxy)-phenyl]-(8-fluoro-6-methyl-3,4-dihydro-2H-quinolin-1-yl)-methanone]
0.566 µM	Cc1ccnc(Cl)c1N(C)C(=O)c1cccnc1Oc1cc(Cl)ccc1Cl [Example 69, N-(2-Chloro-4-methyl-pyridin-3-yl)-2-(2,5-dichloro-phenoxy)-N-methyl-nicotinamide]
0.075 µM	O=C(c1cc(F)cnc1Oc1ccc(F)c(Cl)c1)N1CCCc2cc(F)c(F)cc21 [Example 87, [2-(3-Chloro-4-fluoro-phenoxy)-5-fluoro-pyridin-3-yl]-(6,7-difluoro-3,4-dihydro-2H-quinolin-1-yl)-methanone]
1.44 µM	O=C(O)c1ccc(C#Cc2cc(Cl)c(Oc3ncccc3C(=O)N3CCN(C4CC4)c4ccccc43)cc2Cl)cc1Cl [Example 168, 2-Chloro-4-{2,5-dichloro-4-[3-(4-cyclopropyl-3,4-dihydro-2H-quinoxaline-1-carbonyl)-pyridin-2-yloxy]-phenylethynyl}-benzoic acid]
0.283 µM	CN(C(=O)c1cccnc1Oc1cc(Cl)ccc1Cl)c1ccccc1 [Example 35, 2-(2,5-Dichloro-phenoxy)-N-methyl-N-phenyl-nicotinamide]
0.641 µM	COc1ccc(Cl)cc1N(C)C(=O)c1cccnc1Oc1cc(Cl)ccc1Cl [Example 55, N-(5-Chloro-2-methoxy-phenyl)-2-(2,5-dichloro-phenoxy)-N-methyl-nicotinamide]

EC50	SMILES
1.55 µM	COc1cccc(OC)c1N(C)C(=O)c1cccnc1Oc1cc(Cl)ccc1Cl [Example 60, 2-(2,5-Dichloro-phenoxy)-N-(2,6-dimethoxy-phenyl)-N-methyl-nicotinamide]
0.013 µM	O=C(c1cc(F)cnc1Oc1cc(Cl)ccc1Cl)N1CCCc2ccccc21 [Example 83, [2-(2,5-Dichloro-phenoxy)-5-fluoro-pyridin-3-yl]-(3,4-dihydro-2H-quinolin-1-yl)-methanone]
1.92 µM	O=C(c1cccnc1Oc1cccc(OC(F)(F)F)c1)N1CCCc2ccccc21 [Example 16, (3,4-Dihydro-2H-quinolin-1-yl)-[2-(3-trifluoromethoxy-phenoxy)-pyridin-3-yl]-methanone]
0.418 µM	O=C(c1cccnc1Oc1cc(Cl)ccc1Cl)N1CCOc2c(F)cc(F)cc21 [Example 73, [2-(2,5-Dichloro-phenoxy)-pyridin-3-yl]-(6,8-difluoro-2,3-dihydro-benzo[1,4]oxazin-4-yl)-methanone]
0.122 µM	COc1ccccc1N(C)C(=O)c1ccncc1Oc1ccc(F)c(Cl)c1 [Example 108, 3-(3-Chloro-4-fluoro-phenoxy)-N-(2-methoxy-phenyl)-N-methyl-isonicotinamide]
0.259 µM	CC(=O)OCCN1CCN(C(=O)c2cccnc2Oc2cc(Cl)ccc2Cl)c2ccccc21 [Example 140, Acetic acid 2-{4-[2-(2,5-dichloro-phenoxy)-pyridine-3-carbonyl]-3,4-dihydro-2H-quinoxalin-1-yl}-ethyl ester]
0.724 µM	COC(=O)CCCCCN1CCN(C(=O)c2cc(F)cnc2Oc2cc(Cl)ccc2Cl)c2ccccc21 [Example 160, 6-{4-[2-(2,5-Dichloro-phenoxy)-5-fluoro-pyridine-3-carbonyl]-3,4-dihydro-2H-quinoxalin-1-yl}-hexanoic acid methyl ester]
0.116 µM	Cc1cccc(C)c1N(C)C(=O)c1cccnc1Oc1cc(Cl)ccc1Cl [Example 52, 2-(2,5-Dichloro-phenoxy)-N-(2,6-dimethyl-phenyl)-N-methyl-nicotinamide]
0.572 µM	O=C(c1cc(F)ccc1Oc1cc(Cl)ccc1Cl)N1CCOc2ccccc21 [Example 117, [2-(2,5-Dichloro-phenoxy)-5-fluoro-phenyl]-(2,3-dihydro-benzo[1,4]oxazin-4-yl)-methanone]
1.15 µM	O=C(c1cccnc1Oc1cccc(Cl)c1Cl)N1CCCc2ccccc21 [Example 12, [2-(2,3-Dichloro-phenoxy)-pyridin-3-yl]-(3,4-dihydro-2H-quinolin-1-yl)-methanone]
0.058 µM	O=C(c1cccnc1Oc1cc(Cl)ccc1Cl)N1CCCc2ccc(F)cc21 [Example 34, [2-(2,5-Dichloro-phenoxy)-pyridin-3-yl]-(7-fluoro-3,4-dihydro-2H-quinolin-1-yl)-methanone]
0.148 µM	COC(=O)CCC#Cc1cc(Cl)c(Oc2ncccc2C(=O)N2CCCc3ccccc32)cc1Cl [Example 166, 5-{2,5-Dichloro-4-[3-(3,4-dihydro-2H-quinoline-1-carbonyl)-pyridin-2-yloxy]-phenyl}-pent-4-ynoic acid methyl ester]
0.02 µM	COc1ccccc1N(C)C(=O)c1cccnc1Oc1cc(Cl)ccc1Cl [Example 42, 2-(2,5-Dichloro-phenoxy)-N-(2-methoxy-phenyl)-N-methyl-nicotinamide]
0.946 µM	CC1CCc2ccccc2N1C(=O)c1cc(F)ccc1Oc1cc(Cl)ccc1Cl (stereo not shown) [Example 114, [2-(2,5-Dichloro-phenoxy)-5-fluoro-phenyl]-(2-methyl-3,4-dihydro-2H-quinolin-1-yl)-methanone]
1.71 µM	CC1Cc2ccccc2N1C(=O)c1ccccc1Oc1cc(Cl)ccc1Cl (stereo not shown) [Example 112, [2-(2,5-Dichloro-phenoxy)-phenyl]-(2-methyl-2,3-dihydro-indol-1-yl)-methanone]
0.029 µM	COc1ncccc1N(C)C(=O)c1cc(F)cnc1Oc1cc(Cl)ccc1Cl [Example 145, 2-(2,5-Dichloro-phenoxy)-5-fluoro-N-(2-methoxy-pyridin-3-yl)-N-methyl-nicotinamide]
0.436 µM	O=C(c1cccnc1Oc1cccc(Cl)c1)N1CCOc2ccccc21 [Example 30, [2-(3-Chloro-phenoxy)-pyridin-3-yl]-(2,3-dihydro-benzo[1,4]oxazin-4-yl)-methanone]
0.058 µM	O=C(c1cc(F)cnc1Oc1cc(Cl)ccc1Cl)N1CCN(C2CCC2)c2ccccc21 [Example 150, (4-Cyclobutyl-3,4-dihydro-2H-quinoxalin-1-yl)-[2-(2,5-dichloro-phenoxy)-5-fluoro-pyridin-3-yl]-methanone]
